# Results reported in ChEMBL document CHEMBL5375992, “Design and Development of IKZF2 and CK1α Dual Degraders” (J Med Chem, 2023).
# The source made the active and inactive calls. No cut-off for these calls is given here.
# Columns and labels:
# [1] = target: T1, Protein cereblon/Zinc finger protein Helios (Homo sapiens) (UniProt Q96SW2+Q9UKS7); experiment: Protac activity at CRBN/IKZF2 in human MOLM-13 cells at 25 uM incubated for 24 hrs by Western blotting analysis relative to control; assay type: cell-based
# [2] = target: T1, Protein cereblon/Zinc finger protein Helios (Homo sapiens); experiment: Protac activity at CRBN/IKZF2 in human MOLM-13 cells assessed as relative ratio at 25 uM incubated for 24 hrs by Western blotting analysis relative to DMSO; assay type: cell-based
# [3] = target: T2, Cereblon/Ikaros (Homo sapiens) (UniProt Q96SW2+Q13422); experiment: Protac activity at CRBN/IKZF1 in human MOLM-13 cells assessed as relative ratio at 25 uM incubated for 24 hrs by Western blotting analysis relative to DMSO; assay type: cell-based
# [4] = target: T2, Cereblon/Ikaros (Homo sapiens); experiment: Protac activity at CRBN/IKZF1 in human MOLM-13 cells at 25 uM incubated for 24 hrs by Western blotting analysis relative to control; assay type: cell-based
# [5] = target: Protein cereblon/Eukaryotic peptide chain release factor GTP-binding subunit ERF3A (Homo sapiens) (UniProt Q96SW2+P15170); experiment: Protac activity at CRBN/GSPT1 (unknown origin) transfected in HEK293T cells at 100 nM incubated for 24 hrs by flow cytometry analysis relative to control; assay type: cell-based
# [6] = target: T1, Protein cereblon/Zinc finger protein Helios (Homo sapiens); experiment: Protac activity at CRBN/IKZF2 (unknown origin) transfected in HEK293T cells at 100 nM incubated for 24 hrs by flow cytometry analysis relative to control; assay type: cell-based
# [7] = target: T2, Cereblon/Ikaros (Homo sapiens); experiment: Protac activity at CRBN/IKZF1 (unknown origin) transfected in HEK293T cells at 100 nM incubated for 24 hrs by flow cytometry analysis relative to control; assay type: cell-based
# [8] = target: Cereblon/Casein kinase I alpha (Homo sapiens) (UniProt P48729+Q96SW2); experiment: Protac activity at CRBN/CK1alpha (unknown origin) transfected in HEK293T cells at 100 nM incubated for 24 hrs by flow cytometry analysis relative to control; assay type: cell-based
# [9] = Solubility of compound in DMSO; assay type: physicochemical
# [10] = Metabolic stability in mouse liver microsomes assessed as intrinsic clearance preincubated with NADPH and UDPGA for 5 mins followed by compound addition and measured upto 60 mins by LC-MS/MS analysis; assay type: ADME, Microsome; conditions: read-out: CLH
# [11] = Metabolic stability in mouse liver microsomes assessed as half life preincubated with NADPH and UDPGA for 5 mins followed by compound addition and measured upto 60 mins by LC-MS/MS analysis; assay type: ADME, Microsome
# Sequence of Protein cereblon/Eukaryotic peptide chain release factor GTP-binding subunit ERF3A (Homo sapiens) (P15170 whole entry, looked up): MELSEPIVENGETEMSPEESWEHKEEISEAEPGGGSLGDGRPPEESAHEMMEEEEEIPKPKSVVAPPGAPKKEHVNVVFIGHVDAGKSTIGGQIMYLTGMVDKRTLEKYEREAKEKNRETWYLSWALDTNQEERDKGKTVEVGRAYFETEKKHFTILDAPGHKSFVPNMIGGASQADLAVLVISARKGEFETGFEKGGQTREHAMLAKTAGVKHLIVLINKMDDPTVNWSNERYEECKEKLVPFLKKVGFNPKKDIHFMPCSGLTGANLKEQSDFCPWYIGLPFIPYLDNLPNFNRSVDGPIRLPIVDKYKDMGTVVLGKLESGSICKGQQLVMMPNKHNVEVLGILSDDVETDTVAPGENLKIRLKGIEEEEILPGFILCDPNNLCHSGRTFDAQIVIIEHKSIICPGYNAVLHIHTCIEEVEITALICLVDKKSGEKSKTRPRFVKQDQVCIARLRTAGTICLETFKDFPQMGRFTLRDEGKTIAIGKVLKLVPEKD
# Sequence of Protein cereblon/Eukaryotic peptide chain release factor GTP-binding subunit ERF3A (Homo sapiens) (Q96SW2 whole entry, looked up): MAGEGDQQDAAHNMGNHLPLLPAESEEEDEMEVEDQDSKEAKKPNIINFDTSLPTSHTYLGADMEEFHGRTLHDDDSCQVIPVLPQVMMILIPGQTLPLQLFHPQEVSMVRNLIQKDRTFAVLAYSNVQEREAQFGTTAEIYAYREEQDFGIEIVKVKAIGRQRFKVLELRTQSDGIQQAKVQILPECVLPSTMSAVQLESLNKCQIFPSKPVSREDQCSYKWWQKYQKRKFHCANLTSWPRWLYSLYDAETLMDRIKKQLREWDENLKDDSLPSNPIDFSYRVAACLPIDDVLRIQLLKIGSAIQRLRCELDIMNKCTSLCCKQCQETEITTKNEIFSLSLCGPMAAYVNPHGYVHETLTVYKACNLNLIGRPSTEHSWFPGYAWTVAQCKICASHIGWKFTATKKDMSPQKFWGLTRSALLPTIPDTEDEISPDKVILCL
# Sequence of Cereblon/Casein kinase I alpha (Homo sapiens) (P48729 2-337 limits assumed): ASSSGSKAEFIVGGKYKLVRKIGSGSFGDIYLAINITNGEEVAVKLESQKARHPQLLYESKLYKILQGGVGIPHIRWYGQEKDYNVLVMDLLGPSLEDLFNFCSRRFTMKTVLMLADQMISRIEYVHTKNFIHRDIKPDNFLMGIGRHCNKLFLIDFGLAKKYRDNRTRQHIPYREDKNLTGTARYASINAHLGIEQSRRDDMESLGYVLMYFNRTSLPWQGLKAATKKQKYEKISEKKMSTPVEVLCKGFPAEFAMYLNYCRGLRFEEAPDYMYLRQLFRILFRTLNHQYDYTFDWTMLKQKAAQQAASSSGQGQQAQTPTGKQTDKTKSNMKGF
# Sequence of Cereblon/Casein kinase I alpha (Homo sapiens) (Q96SW2 whole entry partner): as the sequence (Q96SW2 whole entry, looked up) above
# T1 sequence (Q96SW2 whole entry, looked up): as above
# T1 sequence (Q9UKS7 whole entry, looked up): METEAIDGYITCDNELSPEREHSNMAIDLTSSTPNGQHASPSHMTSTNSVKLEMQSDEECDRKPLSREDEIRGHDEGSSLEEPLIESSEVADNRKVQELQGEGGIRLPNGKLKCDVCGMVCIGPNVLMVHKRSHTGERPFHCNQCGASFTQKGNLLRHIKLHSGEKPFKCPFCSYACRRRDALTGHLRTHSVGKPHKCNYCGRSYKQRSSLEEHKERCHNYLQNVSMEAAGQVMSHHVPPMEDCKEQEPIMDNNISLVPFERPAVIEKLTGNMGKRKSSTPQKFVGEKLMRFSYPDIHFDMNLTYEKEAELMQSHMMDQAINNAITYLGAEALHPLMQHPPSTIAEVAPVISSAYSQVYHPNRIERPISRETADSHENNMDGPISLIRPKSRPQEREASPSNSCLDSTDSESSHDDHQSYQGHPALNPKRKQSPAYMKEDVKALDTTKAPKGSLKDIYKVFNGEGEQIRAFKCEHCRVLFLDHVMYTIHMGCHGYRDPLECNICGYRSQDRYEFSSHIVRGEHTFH
Ratio [2],Ratio [3],Activity [5] [%],Activity [6] [%],Activity [7] [%],Activity [8] [%],SMILES,other results
0.84,0.32,–,–,–,–,O=C1CCC(N2Cc3cc(NCc4cccc5c4oc4ccccc45)ccc3C2=O)C(=O)N1 (configuration not stated),Activity [1]: Active; Activity [4]: Active
–,–,0,42,3,33,O=C1CCC(N2Cc3cc(NC(=O)c4ccc5ncsc5c4)ccc3C2=O)C(=O)N1 (configuration not stated),–
–,–,14,73,9,64,Cc1ccc2c(c1)OCC(C(=O)Nc1ccc3c(c1)CN(C1CCC(=O)NC1=O)C3=O)=C2 (configuration not stated),"solubility ([9]; DMSO, read-out: solubility): 50 mM"
0.66,0.04,–,–,–,–,O=C1CCC(N2Cc3cc(NCc4cccc(OCc5ccccc5)c4)ccc3C2=O)C(=O)N1 (configuration not stated),–
1.41,0.73,–,–,–,–,O=C1CCC(N2Cc3cc(NCc4ccc5cc(Br)ccc5c4)ccc3C2=O)C(=O)N1 (configuration not stated),–
0.43,0.64,–,–,–,–,COc1ccc2cc(CNc3ccc4c(c3)CN(C3CCC(=O)NC3=O)C4=O)ccc2c1 (configuration not stated),Activity [1]: Active; Activity [4]: Active
–,–,5,49,12,47,O=C1CCC(N2Cc3cc(NC(=O)C4=Cc5cc(Br)cc(Br)c5OC4)ccc3C2=O)C(=O)N1 (configuration not stated),"solubility ([9]; DMSO, read-out: solubility): 50 mM"
–,–,24,75,39,59,COc1cccc2c1C=C(C(=O)Nc1ccc3c(c1)CN(C1CCC(=O)NC1=O)C3=O)CO2 (configuration not stated),"solubility ([9]; DMSO, read-out: solubility): 50 mM"
0.65,0.48,–,–,–,–,COc1ccc(CNc2ccc3c(c2)CN(C2CCC(=O)NC2=O)C3=O)cc1 (configuration not stated),–
–,–,–,88,–,72,COc1cc2ccc(C(=O)Nc3ccc4c(c3)CN(C3CCC(=O)NC3=O)C4=O)cc2cn1 (configuration not stated),–
0.79,0.14,–,–,–,–,O=C1CCC(N2Cc3cc(NCc4cccc(Oc5ccccc5)c4)ccc3C2=O)C(=O)N1 (configuration not stated),–
1.51,0.26,–,–,–,–,O=C1CCC(N2Cc3cc(NCCc4ccc5ccccc5c4)ccc3C2=O)C(=O)N1 (configuration not stated),Activity [1]: inactive; Activity [4]: Active
–,–,0,81,13,46,O=C1CCC(N2Cc3cc(NC(=O)C4=COc5ccccc5O4)ccc3C2=O)C(=O)N1 (configuration not stated),–
–,–,22,80,13,62,O=C1CCC(N2Cc3cc(NC(=O)C4=Cc5ccc(Br)cc5OC4)ccc3C2=O)C(=O)N1 (configuration not stated),"solubility ([9]; DMSO, read-out: solubility): 50 mM"
–,–,6,85,11,66,O=C1CCC(N2Cc3cc(NC(=O)C4=Cc5ccc(OC(F)(F)F)cc5OC4)ccc3C2=O)C(=O)N1 (configuration not stated),"solubility ([9]; DMSO, read-out: solubility): 50 mM"
–,–,11,84,15,66,O=C1CCC(N2Cc3cc(NC(=O)C4=Cc5ccccc5OC4)ccc3C2=O)C(=O)N1 (configuration not stated),–
0.76,0.13,–,–,–,–,O=C1CCC(N2Cc3cc(NCc4cc5ccccc5o4)ccc3C2=O)C(=O)N1 (configuration not stated),–
–,–,9,83,60,64,O=C1CCC(N2Cc3cc(NC(=O)c4cccc(C(=O)c5ccccc5)c4)ccc3C2=O)C(=O)N1 (configuration not stated),–
–,–,9,57,4,60,COc1ccc2c(c1)OCC(C(=O)Nc1ccc3c(c1)CN(C1CCC(=O)NC1=O)C3=O)=C2 (configuration not stated),"solubility ([9]; DMSO, read-out: solubility): 50 mM"
1.45,0.09,–,–,–,–,O=C1CCC(N2C(=O)c3ccc(NCc4ccc5ccccc5c4)cc3C2=O)C(=O)N1 (configuration not stated),Activity [1]: Active; Activity [4]: inactive
–,–,25,93,97,64,O=C1CCC(N2Cc3cc(NC(=O)Cc4cccc5ccccc45)ccc3C2=O)C(=O)N1 (configuration not stated),–
–,–,–,–,–,–,COc1ccc2ccc(CNc3ccc4c(c3)CN(C3CCC(=O)NC3=O)C4=O)cc2c1 (configuration not stated),Activity [1]: inactive; Activity [4]: Active
–,–,9,74,62,58,O=C1CCC(N2Cc3cc(NC(=O)c4cccc(Oc5ccccc5)c4)ccc3C2=O)C(=O)N1 (configuration not stated),–
0.84,0.54,–,–,–,–,O=C1CCC(N2Cc3cc(NCc4ccc5cc(O)ccc5c4)ccc3C2=O)C(=O)N1 (configuration not stated),–
–,–,–,–,–,–,O=C1CCC(N2Cc3cc(NCc4ccc5ncccc5c4)ccc3C2=O)C(=O)N1 (configuration not stated),Activity [4]: Active
–,–,5,38,9,36,O=C1CCC(N2Cc3cc(NC(=O)c4ccc5c(c4)OCCO5)ccc3C2=O)C(=O)N1 (configuration not stated),–
–,–,–,–,–,–,O=C1CCC(N2Cc3cc(NCc4cc5ccccc5cn4)ccc3C2=O)C(=O)N1 (configuration not stated),Activity [4]: Active

Ratio [2],Ratio [3],Activity [5] [%],Activity [6] [%],Activity [7] [%],Activity [8] [%],SMILES,other results
–,–,2,74,13,65,COc1cc(Br)cc2c1OCC(C(=O)Nc1ccc3c(c1)CN(C1CCC(=O)NC1=O)C3=O)=C2 (configuration not stated),"solubility ([9]; DMSO, read-out: solubility): 50 mM"
0.94,0.24,–,–,–,–,O=C1CCC(N2Cc3cc(NCc4ccc5c(c4)oc4ccccc45)ccc3C2=O)C(=O)N1 (configuration not stated),Activity [1]: Active; Activity [4]: Active
0.19,0.08,–,–,–,–,O=C1CCC(N2Cc3cc(NCc4ccc5oc6ccccc6c5c4)ccc3C2=O)C(=O)N1 (configuration not stated),Activity [1]: Active
–,–,9,75,16,66,COc1ccc2c(c1)C=C(C(=O)Nc1ccc3c(c1)CN(C1CCC(=O)NC1=O)C3=O)CO2 (configuration not stated),"solubility ([9]; DMSO, read-out: solubility): 50 mM"
–,–,–,–,–,–,COc1cc2c(OC)cccc2cc1CNc1ccc2c(c1)CN(C1CCC(=O)NC1=O)C2=O (configuration not stated),Activity [1]: Active
1.04,0.59,–,–,–,–,O=C1CCC(N2Cc3cc(NCc4ccccc4)ccc3C2=O)C(=O)N1 (configuration not stated),–
–,–,2,81,6,50,O=C1CCC(N2Cc3cc(NC(=O)c4ccc5occc5c4)ccc3C2=O)C(=O)N1 (configuration not stated),–
–,–,10,78,5,61,O=C1CCC(N2Cc3cc(NC(=O)c4ccc(Oc5ccccc5)cc4)ccc3C2=O)C(=O)N1 (configuration not stated),–
–,–,–,–,–,–,COc1cc(CNc2ccc3c(c2)CN(C2CCC(=O)NC2=O)C3=O)cc2ccccc12 (configuration not stated),Activity [1]: inactive; Activity [4]: Active
–,–,10,17,4,12,CC(=O)Nc1ccc2c(c1)CN(C1CCC(=O)NC1=O)C2=O (configuration not stated),–
–,–,–,–,–,–,COc1cccc2ccc(CNc3ccc4c(c3)CN(C3CCC(=O)NC3=O)C4=O)cc12 (configuration not stated),Activity [1]: inactive; Activity [4]: Active
–,–,8,71,13,60,O=C(/C=C/c1ccccc1)Nc1ccc2c(c1)CN(C1CCC(=O)NC1=O)C2=O (configuration not stated),–
–,–,5,49,7,36,O=C1CCC(N2Cc3cc(NC(=O)c4ccc5c(c4)OCO5)ccc3C2=O)C(=O)N1 (configuration not stated),–
–,–,–,–,–,–,O=C1CCC(N2Cc3cc(NCc4cccc5cnccc45)ccc3C2=O)C(=O)N1 (configuration not stated),Activity [4]: Active
–,–,–,60,–,55,O=C1CCC(N2Cc3cc(NC(=O)c4ccc5cc(O)ccc5c4)ccc3C2=O)C(=O)N1 (configuration not stated),–
0.74,0.65,–,–,–,–,CN(C)c1ccc2cc(CNc3ccc4c(c3)CN(C3CCC(=O)NC3=O)C4=O)ccc2c1 (configuration not stated),Activity [1]: Active; Activity [4]: Active
–,–,2,80,13,62,O=C1CCC(N2Cc3cc(NC(=O)c4cc5ccccc5o4)ccc3C2=O)C(=O)N1 (configuration not stated),solubility [9]: 25 mM
–,–,1,74,16,51,O=C1CCC(N2Cc3cc(NC(=O)c4ccc5c(c4)CCCC5)ccc3C2=O)C(=O)N1 (configuration not stated),–
0.95,0.39,–,–,–,–,O=C1CCC(N2Cc3cc(NCc4ccc5c6c4CC=C4C=CC=C(C=C5)C46)ccc3C2=O)C(=O)N1 (configuration not stated),–
–,–,3,70,8,65,O=C1CCC(N2Cc3cc(NC(=O)C4=Cc5ccc(C(F)(F)F)cc5OC4)ccc3C2=O)C(=O)N1 (configuration not stated),"solubility ([9]; DMSO, read-out: solubility): 50 mM"
–,–,–,62,–,64,COc1cnc2cc(C(=O)Nc3ccc4c(c3)CN(C3CCC(=O)NC3=O)C4=O)ccc2c1 (configuration not stated),microsomal CLint [10]: < 5.4 µL/min/mg; half-life [11]: > 4.25 h
0.36,0.15,–,–,–,–,O=C1CCC(N2Cc3cc(NCc4ccc5ccccc5c4)ccc3C2=O)C(=O)N1 (configuration not stated),Activity [1]: Active
–,–,–,–,–,–,O=C1CCC(N2Cc3cc(NCc4ccc5ccccc5n4)ccc3C2=O)C(=O)N1 (configuration not stated),Activity [4]: Active
0.83,0.66,–,–,–,–,O=C1CCC(N2Cc3cc(NCc4cccc5ccccc45)ccc3C2=O)C(=O)N1 (configuration not stated),–
–,–,–,–,–,–,O=C1CCC(N2Cc3cc(NCc4ccc5ccncc5c4)ccc3C2=O)C(=O)N1 (configuration not stated),Activity [4]: Active
–,–,–,–,–,–,O=C1CCC(N2Cc3cc(NCc4ccc5cc(F)ccc5c4)ccc3C2=O)C(=O)N1 (configuration not stated),Activity [1]: Active; Activity [4]: Active
